Where a name gives a salt, the structure may show the parent alone.
What was measured:
Type in all cases: biochemical
human plasmin [1] = target: T1, human plasmin (Homo sapiens, UniProt P00747); assay: Antiplasmin activity: inhibition of S-2251 decomposition; details: Table 2; substrate S-2251, pH 7.4, 37°C; read-out: Plasmin S-2251 (concentration I₅₀)
Procedure: (ii) Determination of inhibition activity on S-225l decomposition
An inhibitor sample is dissolved in a 0.05 M Tris-hydrochloric acid buffer solution (pH = 7.4) to bring the total volume to 400 µl. To this solution, 50 µl of a 3 mM S-225l solution is added and the mixture is incubated at a temperature of 37°C for 5 minutes in a constant temperature bath. Then 50 µl of a 0.2 casein unit/ml human plasmin is added and the mixture is incubated at a temperature of 37°C for 4 minutes. Thereafter, the reaction is stopped by adding 50 µl of 50% acetic acid.
Thus, the concentration I₅₀ (µmol) of the inhibitor sample, at which the absorbance is one half (i.e., l/2) of that obtained in the absence of the inhibitor, is determined.

human plasmin [2] = target: T1, human plasmin; assay: Antiplasmin activity: inhibition of fibrin decomposition; details: Table 2; concentration at which fibrin dissolution time is extended twice, pH 7.4, 37°C; read-out: Plasmin Fibrin (concentration I₅₀)
Procedure: (i) Determination of inhibition activity on fibrin decomposition
An inhibitor sample is dissolved in a 0.l8 M borate-physiological salt buffer solution (pH = 7.4) to bring the total volume to 600 µl. To this buffer solution, 200 µl of a 0.2% bovine fibrinogen, l00 µl of a 0.3 casein unit/ml human plasmin solution, and l00 µl of a 50 unit/ml bovine thrombin solution, all dissolved in the above-mentioned buffer, are added at a temperature of 37°C in a constant temperature bath. The dissolution time of the fibrin mass formed above is then determined.

bovine thrombin [3] = target: T2, bovine thrombin (Bos taurus, UniProt P00735); assay: Antithrombin activity: inhibition of S-2238 decomposition
Procedure: (ii) Determination of inhibition activity on S-2238 decomposition
An inhibitor sample is dissolved in a 0.05 M Tris-hydrochloric acid buffer solution (pH = 8.3) to bring the a total volume to 400 µl. To this solution, 50 µl of a 0.2 mM S-2238 solution is added and the mixture is incubated at a temperature of 37°C for 5 minutes in a constant temperature bath. Then 50 µl of a 0.2 unit/ml bovine thrombin solution is added thereto and the absorbance, at 405 nm, of the p-nitroaniline formed per minute is determined at a temperature of 37°C by using the so-called initial velocity method. Thus, the concentration I₅₀ (µmol) of the inhibitor sample, at which the absorbance is one half (i.e., l/2) of that obtained in the absence of the inhibitor sample, is determined.

bovine thrombin [4] = target: T2, bovine thrombin; assay: Antithrombin activity: inhibition of fibrin formation from fibrinogen
Procedure: (i) Determination of inhibition activity against fibrin formation
An inhibitor sample is dissolved in a 0.l8 M borate-physiological salt buffer solution (pH = 7.4) to bring the total volume to 500 µl. To this solution, 400 µl of a 0.2% bovine fibrinogen solution and l00 µl of a 4 unit/ml bovine thrombin solution are added at a temperature of 37°C in a constant temperature bath. Thus, a coagulation time is determined. The inhibitor concentration I₅₀ (µmol), at which the coagulation time obtained in the absence of the inhibitor is extended twice, is determined.

human urokinase = human urokinase (Homo sapiens, UniProt P00749); assay: Antiurokinase activity: inhibition of S-2444 decomposition; details: Table 2; substrate S-2444, pH 8.8, 37°C; read-out: Urokinase S-2444 (concentration I₅₀)
Procedure: Determination of inhibition activity for S-2444 decomposition
An inhibitor sample is dissolved in a 0.05 M Tris-hydrochloric acid buffer solution (pH = 8.8) to bring the total volume to 400 µl. To this solution, 50 µl of a l mM S-2444 solution is added and the mixture is incubated at a temperature of 37°C for 5 minutes in a constant temperature bath. Then 50 µl of a 500 unit/ml human urokinase is added and the mixture is incubated at a temperature of 37°C for 5 minutes. Thereafter, 50 µl of 50% acetic acid is added to terminate the reaction. The absorbance of the p-nitroaniline formed in the reaction mixture is measured at 405 nm. Thus, the concentration I₅₀ (µmol) of the inhibitor sample, at which the absorbance is one half (i.e., l/2) of that obtained in the absence of the inhibitor sample, is determined.

human plasma kallikrein = human plasma kallikrein (Homo sapiens, UniProt P03952); assay: Anti-plasma kallikrein activity: inhibition of S-2302 decomposition; details: Table 2; substrate S-2302, pH 7.8, 37°C; read-out: Plasma Kallikrein S-2302 (concentration I₅₀)
Sequence of human plasma kallikrein (P03952 391-638 limits assumed): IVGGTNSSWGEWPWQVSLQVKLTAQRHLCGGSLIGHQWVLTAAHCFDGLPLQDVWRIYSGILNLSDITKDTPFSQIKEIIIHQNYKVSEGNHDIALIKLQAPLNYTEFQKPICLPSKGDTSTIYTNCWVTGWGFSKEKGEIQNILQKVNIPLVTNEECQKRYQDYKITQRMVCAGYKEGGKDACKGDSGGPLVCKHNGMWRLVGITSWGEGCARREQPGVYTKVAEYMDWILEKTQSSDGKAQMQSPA
Sequence of human plasma kallikrein (P03952 20-390 partner limits assumed): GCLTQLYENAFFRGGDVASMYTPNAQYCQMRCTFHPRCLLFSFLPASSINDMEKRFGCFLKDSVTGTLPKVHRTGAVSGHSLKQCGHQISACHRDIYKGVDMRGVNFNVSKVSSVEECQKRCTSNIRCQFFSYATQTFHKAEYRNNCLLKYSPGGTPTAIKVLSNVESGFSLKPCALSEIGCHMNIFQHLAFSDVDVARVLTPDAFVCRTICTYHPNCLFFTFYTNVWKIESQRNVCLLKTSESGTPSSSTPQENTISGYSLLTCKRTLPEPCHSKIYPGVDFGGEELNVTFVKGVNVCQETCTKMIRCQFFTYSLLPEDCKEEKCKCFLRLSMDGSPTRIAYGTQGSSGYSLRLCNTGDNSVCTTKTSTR
Procedure: An inhibitor sample is dissolved in a 0.05 M Tris-hydrochloric acid buffer solution (pH = 7.8) to bring the total volume to 400 µl. […] Then, 50 µl of a 0.l2 unit/ml human plasma kallikrein is added and the mixture is incubated at a temperature of 37°C for 5 minutes. Thereafter, 50 µl of 50% acetic acid is added to terminate the reaction. […] Thus, the concentration I₅₀ (µmol) of the inhibitor sample, at which the absorbance is one half (i.e., l/2) of that obtained in the absence of the inhibitor sample, is determined.

bovine trypsin = target: T3, bovine trypsin (Bos taurus, UniProt P00760); assay: Antitrypsin activity: inhibition of S-2238 decomposition; details: Table 2; substrate S-2238, pH 8.1, 37°C; read-out: Trypsin S-2238 (concentration I₅₀)
T3 sequence (P00760 24-246): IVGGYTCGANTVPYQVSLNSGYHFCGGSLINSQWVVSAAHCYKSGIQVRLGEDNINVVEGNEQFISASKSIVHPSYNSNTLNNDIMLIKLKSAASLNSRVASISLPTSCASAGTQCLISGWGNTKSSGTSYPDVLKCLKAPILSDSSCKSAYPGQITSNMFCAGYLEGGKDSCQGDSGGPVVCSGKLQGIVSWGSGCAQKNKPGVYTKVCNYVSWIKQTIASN
Procedure: Determination of inhibition activity against S-2238 decomposition An inhibitor sample is dissolved in a 0.05 M Tris-imidazole buffer solution (pH = 8.l) and l25 µl of a l mM S-2238 solution is added to bring the total volume to l.20 ml. The mixture is incubated at a temperature of 37°C for 5 minutes in a constant temperature bath. To this mixture, 0.05 ml of bovine trypsin is added and the absorbance, at 405 nm, of the p-nitroaniline formed per minute is determined at a temperature of 37°C by using the so-called initial velocity method. Thus, the concentration I₅₀ (µmol) of the inhibitor sample, at which the absorbance is one half (i.e., l/2) of that obtained in the absence of the inhibitor sample, is determined.

T1 sequence (P00747 581-810 limits assumed): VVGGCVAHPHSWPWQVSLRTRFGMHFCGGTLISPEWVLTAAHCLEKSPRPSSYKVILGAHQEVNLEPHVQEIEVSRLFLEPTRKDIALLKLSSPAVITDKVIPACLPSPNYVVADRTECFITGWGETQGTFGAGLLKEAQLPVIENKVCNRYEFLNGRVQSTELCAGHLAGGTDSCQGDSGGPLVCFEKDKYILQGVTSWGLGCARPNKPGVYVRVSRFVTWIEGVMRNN
T1 sequence (P00747 97-580 partner limits assumed): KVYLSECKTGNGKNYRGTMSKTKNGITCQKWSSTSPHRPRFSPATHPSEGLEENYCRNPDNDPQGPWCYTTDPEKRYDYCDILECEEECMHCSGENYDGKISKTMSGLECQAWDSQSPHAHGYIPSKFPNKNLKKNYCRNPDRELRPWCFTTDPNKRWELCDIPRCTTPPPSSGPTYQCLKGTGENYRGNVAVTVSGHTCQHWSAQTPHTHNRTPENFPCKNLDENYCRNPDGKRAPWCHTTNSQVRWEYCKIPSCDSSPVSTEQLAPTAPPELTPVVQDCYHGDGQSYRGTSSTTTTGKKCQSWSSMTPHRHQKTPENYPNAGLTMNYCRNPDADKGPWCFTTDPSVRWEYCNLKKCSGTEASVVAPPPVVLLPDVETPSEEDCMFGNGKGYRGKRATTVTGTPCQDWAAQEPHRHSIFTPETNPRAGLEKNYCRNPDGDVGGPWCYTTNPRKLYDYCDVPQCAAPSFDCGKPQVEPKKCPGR

| IC50 (human plasmin [1]) [µM] | IC50 (human plasmin [2]) [µM] | IC50 (bovine thrombin [3]) [µM] | IC50 (bovine thrombin [4]) [µM] | IC50 (human urokinase) [µM] | IC50 (human plasma kallikrein) [µM] | IC50 (bovine trypsin) [µM] | IC50 (bovine thrombin [4]; Table 2, concentration at which coagulation time is extended twice, bovine fibrinogen, pH 7.4, 37°C, read-out: Thrombin Fibrinogen (concentration I₅₀)) [µM] | Molecule |
| --- | --- | --- | --- | --- | --- | --- | --- | --- |
| > 1000 | > 1000 | > 1000 | > 1000 | > 1000 | – | – | – | CCOC(=O)CC(O)CNC(=O)[C@H](Cc1ccccc1)NC(=O)CCCCN (some centres unmarked) [Compound No. 3] |
| > 1000 | > 1000 | > 500 | – | > 500 | > 1000 | – | – | CN(Cc1ccncc1)C(=O)[C@H](Cc1ccccc1)NC(=O)CCCCCN [Compound No. 6, N-(6-aminocaproyl)-L-phenylalanine N-methyl-(4-pycoryl)amide dihydrochloride] |
| 89 | – | – | – | 11 | 11 | 0.43 | – | N=C(N)Nc1ccc(C(=O)N[C@@H](Cc2ccc([N+](=O)[O-])cc2)C(=O)Nc2ccc(C(=O)c3ccccc3)cc2)cc1 [Compound No. 23, N-(4-guanidinobenzoyl)-4-nitro-L-phenylalaninine 4-benzoylanilide methanesulfonate] |
| 23 | – | > 200 | – | – | – | – | – | NCCCC(=O)N[C@@H](Cc1ccccc1)C(=O)Nc1ccc(C(=O)c2ccccc2)cc1 [compound 1] |
| 39 | – | – | – | – | – | > 200 | – | NCCCCCC(=O)N[C@@H](Cc1ccccc1)C(=O)Nc1ccc(C(=O)c2ccccc2)cc1 [compound 4] |
| > 100 | – | > 180 | > 120 | 120 | > 120 | – | – | NCCCCCC(=O)N[C@@H](Cc1ccc(O)cc1)C(=O)Nc1ccc(C(=O)c2ccccc2)cc1 [compound 7] |
| 30 | – | – | – | 100 | 31 | 16 | – | NCCc1ccc(C(=O)N[C@@H](Cc2ccccc2)C(=O)Nc2ccc(C(=O)c3ccccc3)cc2)cc1 [compound 9] |
| 830 | 970 | – | – | – | 85 | – | – | COc1ccc(NC(=O)[C@H](Cc2ccccc2)NC(=O)c2ccc(CCN)cc2)cn1 [compound 10, N-[4-(2-aminoethyl)benzoyl]-L-phenylalanine 3-(6-methoxypyridyl)amide dihydrochloride] |
| 23 | 21 | – | – | 13 | 0.8 | 3.6 | – | CC(=O)c1ccc(NC(=O)[C@H](Cc2ccccc2)NC(=O)c2ccc(C(=N)N)cc2)cc1 [compound 11, N-(4-amidinobenzoyl)-L-phenylalanine 4-acetylanilide hydroiodic acid] |
| 2.2 | 0.98 | – | – | 4 | 0.3 | 0.75 | – | CC(=O)c1ccc(NC(=O)[C@H](Cc2ccc(OCc3ccccc3)cc2)NC(=O)c2ccc(C(=N)N)cc2)cc1 [compound 12, N-(4-amidinobenzoyl)-4-benzyloxy-L-phenylalanine 4-acetylanilide hydroiodic acid] |
| > 1000 | > 200 | – | – | 420 | 4.2 | 1.3 | – | Cc1ccc(NC(=O)[C@H](Cc2ccccc2)NC(=O)c2ccc(NC(=N)N)cc2)cc1 [compound 13, N-(4-guanidinobenzoyl)-L-phenylalanine 4-methylanilide hydrochloride] |
| – | – | – | – | 40 | 3.6 | 1.5 | – | N=C(N)Nc1ccc(C(=O)N[C@@H](Cc2ccccc2)C(=O)Nc2ccc(C(=O)c3ccccc3)cc2)cc1 [compound 16] |
| – | – | > 1000 | > 1000 | 630 | 12 | 35 | – | COc1ccc(NC(=O)[C@H](Cc2ccccc2)NC(=O)c2ccc(NC(=N)N)cc2)cn1 [compound 18] |
| > 1000 | > 1000 | – | > 1000 | – | 1000 | – | – | CN(Cc1ccncc1)C(=O)[C@H](Cc1ccccc1)NC(=O)c1ccc(NC(=N)N)cc1 [compound 19] |
| 450 | – | 400 | > 100 | 740 | 15 | 6 | – | CC1CCC(NC(=O)[C@H](Cc2ccccc2)NC(=O)c2ccc(NC(=N)N)cc2)CC1C (some centres unmarked) [compound 21] |
| 21 | 16 | – | – | 240 | 5.7 | 9.1 | – | Cc1ccc(NC(=O)[C@H](Cc2ccc(OCc3ccccc3)cc2)NC(=O)c2ccc(NC(=N)N)cc2)cc1C [compound 24] |
| 160 | 48 | – | > 100 | – | 12 | 17 | – | COc1ccc(NC(=O)[C@H](Cc2ccc(OCc3ccccc3)cc2)NC(=O)c2ccc(NC(=N)N)cc2)cn1 [compound 25] |
| 140 | – | – | – | – | 170 | 110 | – | CN(Cc1ccccc1)C(=O)[C@H](Cc1ccc(OCc2ccccc2)cc1)NC(=O)c1ccc(NC(=N)N)cc1 [compound 28] |
| 120 | 82 | – | – | – | 56 | 17 | – | N=C(N)NCCCC(=O)N[C@@H](Cc1ccc([N+](=O)[O-])cc1)C(=O)Nc1ccc(C(=O)c2ccccc2)cc1 [compound 29] |
| > 100 | – | – | – | > 100 | > 100 | – | – | N=C(N)NC[C@H]1CC[C@H](C(=O)N[C@@H](Cc2ccc([N+](=O)[O-])cc2)C(=O)Nc2ccc(C(=O)c3ccccc3)cc2)CC1 [compound 31, N-(trans-4-guanidinomethylcyclohexylcarbonyl)-4-nitro-L-phenylalanine 4-benzoylanilide methane sulfonate] |
| 140 | 73 | – | – | 310 | 45 | 15 | > 100 | N-(4-guanidinobenzoyl)-L-phenylalanine 4-cis/trans-methylcyclohexylamide hydrochloride [Compound No. 20] |

From patent EP0298135A1, “Phenylalanine derivative and proteinase inhibitor” (Okamoto, Shosuke, priority 1987, dated 1989)
